# In patent US20240216343A1, “ENDOTHELIAL IK AND SK CHANNEL ACTIVATION TO TREAT PULMONARY HYPERTENSION” (UNIVERSITY OF VIRGINIA PATENT FOUNDATION, priority 2023, published 2024):
# “Also recorded” adds a separate entry of the source.
# Tests used:
# [1] = test system: fourth-order PAs; assay: Pressure myography of mouse fourth-order PAs
# Excerpt: Mouse fourth-order PAs (˜50 μm) were cannulated on glass micropipettes in a pressure myography chamber (The Instrumentation and Model Facility; University of Vermont; Burlington; VT; USA) and pressurized to a physiological pressure of 15 mm Hg (24). Briefly, freshly dissected lungs were placed in ice cold HEPES buffer in a dissection plate. The left lung was stretched and pinned down, with ventral side facing up. First, pulmonary veins, and then the airway were cut open to gain access to the pulmonary arteries underneath. Once PAs were visible, they were gently separated from surrounding tissue (25). Arteries were superfused with bicarbonate-physiological salt solution (PSS; 119 mmol/L NaCl; 4.7 mmol/L KCl; 1.2 mmol/L KH2PO4; 1.2 mmol/L MgCl2 hexahydrate; 2.5 mmol/L CaCl2) dihydrate; 7 mmol/L dextrose; and 24 mmol/L NaHCO3) at 37° ° C. and bubbled with 20% O2/5% CO2 to maintain the pH at 7.4. Approximately 20% PAs from normal mice develop myogenic tone, whereas ˜65% PA from Su+CH mice show myogenic tone at 15 mm Hg. Due to the relatively small percentage of PAs from normal mice showing myogenic tone, we pre-constricted all PAs with 30 nmol/L U46619 (a thromboxane A2 receptor agonist). […] U46619 was added to the chamber immediately, before the arteries could develop myogenic tone. Before measuring vascular reactivity, arteries were treated with NS309 (1 μmol/L), a direct activator of endothelial IK/SK channels, to assess endothelial health. […] Changes in arterial diameter were recorded at a 60-ms frame rate using a charge-coupled device camera and edge-detection software (IonOptix LLC; Westwood; MA; USA) (11, 26). At the end of each experiment, Ca^2+-free PSS (119 mmol/L NaCl; 4.7 mmol/L KCl; 1.2 mmol/L KH2PO4; 1.2 mmol/L MgCl2 hexahydrate; 7 mmol/L dextrose; 24 mmol/L NaHCO3; and 5 mmol/L EGTA) was applied to assess the maximum passive diameter. Percent constriction was calculated by:
# [formula] • where Diameterbefore is the diameter of the artery before treatment and Diameterafter is the diameter after treatment. Percent dilation was calculated by:
# [formula] • where Diameterbasal is the stable diameter before drug treatment, Diameterdilated is the diameter after drug treatment, and Diameterca-free is the maximum passive diameter.
# [2] = test system: endothelial IK/SK channels; assay: Whole-cell patch-clamp in freshly isolated ECs from small PAs; assay type: cell-based, mouse; settings: NS309 1 μmol/L; 250-ms voltage ramp −100 to +50 mV; ECs from N and Su+CH mice
# Method: ECs were freshly isolated from PAs following a previously established protocol (21, 24). […] Worthington Biochemical Corporation; Lakewood; NJ; USA) for 30 minutes at 37° C. With this protocol for endothelial cell isolation, more than 95% of cells are CD31-positive. Whole-cell currents were measured at room temperature using conventional whole-cell patch-clamp electrophysiology. The bath solution consisted of 10 mmol/L HEPES, 134 mmol/L NaCl, 6 mmol/L KCl, 2 mmol/L CaCl2), 1 mmol/L MgCl2 hexahydrate, and 7 mmol/L dextrose (adjusted to pH 7.4 with NaOH). […] The pipette solution for conventional patch clamp consisted of 10 mmol/L HEPES, 123.2 mmol/L KCl, 10 mmol/L NaCl, 5.5 mmol/L MgCl2, 0.2 mmol/L CaCl2) and 5 mmol/L HEDTA (adjusted to pH 7.2 with 16.8 mm KOH) and contained 3 μm free-Ca^2+ and 1 mmol/L free-Mg^2+, as calculated using the Max-Chelator program (Chris Patton; Stanford University; Stanford; CA; USA). […] Data were acquired using a Multiclamp 700B amplifier connected to a Digidata 1550B system and analyzed using Clampfit 11.1 software (Molecular Devices, San Jose, CA, USA). […] IK/SK channel currents induced by the IK/SK channel agonist NS309 (1 μmol/L) were recorded following application of a 250-ms voltage ramp from -100 mV to +50 mV. […]
# [3] = biological target: IK channels (Homo sapiens, UniProt O15554+P0DP23); settings: reference (38); cited from earlier work
# [4] = references (37, 38); cited from earlier work
# [5] = test system: pulmonary arteries from PH patient; assay: Pressure myography of small pulmonary arteries from a human subject with PH; settings: ~50 μm arteries at 15 mm Hg pre-constricted with U46619; n=3 arteries
# Excerpt: We tested whether IK/SK channel activation dilates pulmonary arteries from human subjects with PH. Deidentified human lung wedge samples were obtained from explanted lung during lung transplantation surgeries in a PH patient, in accordance with the policies of the University of Virginia Institutional Review Board (IRB #19044). Informed consent was obtained after the nature and possible consequences of the studies were explained. Multiple small pulmonary arteries (˜50 μm) were dissected and used for pressure myography experiments. Pulmonary arteries were cannulated at both ends and pressurized to a physiological intraluminal pressure of 15 mm Hg. The arteries were pre-constricted using U46619 (U466, thromboxane A2 receptor agonist, FIG. 6). Addition of NS309 (IK/SK channel agonist) dilated the pulmonary arteries from PH patient (FIG. 6).
# [6] = test system: large PAs; settings: large PAs ~560 μm internal diameter; mice exposed to chronic hypoxia; reference (50); cited from earlier work
smiles,measurement,setting,value
"O=C1Nc2c(ccc(Cl)c2Cl)C1=NO [NS309, 6,7-dichloro-1H-indole-2,3-dione 3-oxime]","Dilation of PAs that developed myogenic tone, N vs Su+CH",[1]; NS309 1 μmol/L,not different between N and Su+CH groups
same,"Dilation of small PAs, N vs Su+CH","[1]; NS309 0.3-1 μmol/L, PAs at 15 mm Hg pre-constricted with U46619 30 nmol/L",not different between N and Su+CH mice; also recorded: not different between PAs from control and CH+Su mice
same,"Outward currents at 0 mV in ECs, N vs Su+CH",[2],not different between ECs from N and Su+CH groups
same,EC50,[3],~20 nM
same,Half-life in vivo,[4],short half-life
same,Dilation of human PH pulmonary arteries,[5],dilated
same,Increase of dilation of large PAs in chronic hypoxia,[6],~3 fold
